# Tests used:
# [1] = Inhibition of decarboxylation reaction when organic acid chelating agent was added (HPLC); assay type: physicochemical; conditions: 80° C.
# [2] = Inhibition of decarboxylation reaction in feed; conditions: 10% by weight in unheated CNSL, 80° C.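 Further: ethyl acetate extract of test feed analysed by reversed-phase C18 HPLC with absorbance detection at 280 nm, giving component composition.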
# Description: The analysis was carried out under the conditions of a solvent composition of acetonitrile: water: acetic acid =80:20:1 (based on volume), a flow rate of 2 ml/min, a temperature of 25° C., and an absorbance of 280 nm.
# Samples were taken from the beakers after 3 days and analyzed for composition by HPLC.
# For HPLC analysis, soluble fractions of the test feed was extracted with ethyl acetate and then filtered and dried to concentrate it to 5 mg/ml.
# [3] = Inhibition of decarboxylation reaction in unheated cashew nut shell liquid formulation (silica), citric acid; assay type: physicochemical; conditions: 80° C.; for Anacardic Acid 15:1 Composition (%) / Anacardic Acid 15:1 concentration / Anacardic Acid 15:2 Composition (%) / Anacardic Acid 15:2 concentration / Anacardic Acid 15:3 Composition (%) / Anacardic Acid 15:3 concentration / Cardanol 15:1 concentration / Cardanol 15:2 Composition (%) / Cardanol 15:2 concentration / Cardanol 15:3 Composition (%) / Cardanol 15:3 concentration / Cardanol 15:1 Composition (%): mixed with silica; for inhibition of the decarboxylation: formulation with silica, 6 days
# Description: 10 g of silica (Sipernat 22) was placed into each of beakers.
# [4] = 2% by weight in unheated CNSL, Day 0
# [5] = 2% by weight in unheated CNSL, Day 6
# [6] = 10% by weight in unheated CNSL, Day 0
# [7] = 10% by weight in unheated CNSL, Day 6
# [8] = silica composition 1% by weight in feed, Day 0
# [9] = silica composition 1% by weight in feed, Day 3
smiles,measurement,setting,value
"O=C(O)CC(O)(CC(=O)O)C(=O)O [Citric Acid, citric acid]",Anacardic Acid 15:1 Composition (%),[1]; [4],39.78%
same,Anacardic Acid 15:1 concentration,[1]; [4],332.79 ppm
same,Anacardic Acid 15:2 Composition (%),[1]; [4],14.23%
same,Anacardic Acid 15:2 concentration,[1]; [4],119.04 ppm
same,Anacardic Acid 15:3 Composition (%),[1]; [4],33.01%
same,Anacardic Acid 15:3 concentration,[1]; [4],276.11 ppm
same,Cardanol 15:1 concentration,[1]; [4],45.23 ppm
same,Cardanol 15:2 Composition (%),[1]; [4],2.32%
same,Cardanol 15:2 concentration,[1]; [4],19.40 ppm
same,Cardanol 15:3 Composition (%),[1]; [4],5.25%
same,Cardanol 15:3 concentration,[1]; [4],43.93 ppm
same,Anacardic Acid 15:1 Composition (%),[1]; [5],32.78%
same,Anacardic Acid 15:1 concentration,[1]; [5],281.46 ppm
same,Anacardic Acid 15:2 Composition (%),[1]; [5],11.39%
same,Anacardic Acid 15:2 concentration,[1]; [5],97.81 ppm
same,Anacardic Acid 15:3 Composition (%),[1]; [5],26.31%
same,Anacardic Acid 15:3 concentration,[1]; [5],225.94 ppm
same,Cardanol 15:1 concentration,[1]; [5],111.23 ppm
same,Cardanol 15:2 Composition (%),[1]; [5],4.84%
same,Cardanol 15:2 concentration,[1]; [5],41.54 ppm
same,Cardanol 15:3 Composition (%),[1]; [5],11.72%
same,Cardanol 15:3 concentration,[1]; [5],100.64 ppm
same,Anacardic Acid 15:1 Composition (%),[1]; [6],39.28%
same,Anacardic Acid 15:1 concentration,[1]; [6],248.49 ppm
same,Anacardic Acid 15:2 Composition (%),[1]; [6],14.38%
same,Anacardic Acid 15:2 concentration,[1]; [6],90.98 ppm
same,Anacardic Acid 15:3 Composition (%),[1]; [6],33.19%
same,Anacardic Acid 15:3 concentration,[1]; [6],209.99 ppm
same,Cardanol 15:1 concentration,[1]; [6],34.38 ppm
same,Cardanol 15:2 Composition (%),[1]; [6],2.45%
same,Cardanol 15:2 concentration,[1]; [6],15.47 ppm
same,Cardanol 15:3 Composition (%),[1]; [6],5.27%
same,Cardanol 15:3 concentration,[1]; [6],33.37 ppm
same,Anacardic Acid 15:1 Composition (%),[1]; [7],38.07%
same,Anacardic Acid 15:1 concentration,[1]; [7],273.99 ppm
same,Anacardic Acid 15:2 Composition (%),[1]; [7],13.78%
same,Anacardic Acid 15:2 concentration,[1]; [7],99.14 ppm
same,Anacardic Acid 15:3 Composition (%),[1]; [7],31.48%
same,Anacardic Acid 15:3 concentration,[1]; [7],226.51 ppm
same,Cardanol 15:1 concentration,[1]; [7],49.53 ppm
same,Cardanol 15:2 Composition (%),[1]; [7],3.30%
same,Cardanol 15:2 concentration,[1]; [7],23.72 ppm
same,Cardanol 15:3 Composition (%),[1]; [7],6.49%
same,Cardanol 15:3 concentration,[1]; [7],46.72 ppm
same,stability of the shell liquid in the feed (progress of the decarboxylation),"[2]; in feed, 3 days",stable in the feed without progress of the decarboxylation
same,Anacardic Acid 15:1 Composition (%),[2]; [8],40.28%
same,Anacardic Acid 15:1 concentration,[2]; [8],363.92 ppm
same,Anacardic Acid 15:2 Composition (%),[2]; [8],13.76%
same,Anacardic Acid 15:2 concentration,[2]; [8],124.28 ppm
same,Anacardic Acid 15:3 Composition (%),[2]; [8],33.11%
same,Anacardic Acid 15:3 concentration,[2]; [8],299.13 ppm
same,Cardanol 15:1 concentration,[2]; [8],48.69 ppm
same,Cardanol 15:2 Composition (%),[2]; [8],2.31%
same,Cardanol 15:2 concentration,[2]; [8],20.83 ppm
same,Cardanol 15:3 Composition (%),[2]; [8],5.15%
same,Cardanol 15:3 concentration,[2]; [8],46.52 ppm
same,Anacardic Acid 15:1 Composition (%),[2]; [9],38.54%
same,Anacardic Acid 15:1 concentration,[2]; [9],309.33 ppm
same,Anacardic Acid 15:2 Composition (%),[2]; [9],13.16%
same,Anacardic Acid 15:2 concentration,[2]; [9],105.64 ppm
same,Anacardic Acid 15:3 Composition (%),[2]; [9],31.68%
same,Anacardic Acid 15:3 concentration,[2]; [9],254.26 ppm
same,Cardanol 15:1 Composition (%),[2]; [9],6.98%
same,Cardanol 15:1 concentration,[2]; [9],56.00 ppm
same,Cardanol 15:2 Composition (%),[2]; [9],2.98%
same,Cardanol 15:2 concentration,[2]; [9],23.95 ppm
same,Cardanol 15:3 Composition (%),[2]; [9],6.67%
same,Cardanol 15:3 concentration,[2]; [9],53.50 ppm
same,Anacardic Acid 15:1 Composition (%),[3]; [4],39.36%
same,Anacardic Acid 15:1 concentration,[3]; [4],161.67 ppm
same,Anacardic Acid 15:2 Composition (%),[3]; [4],14.07%
same,Anacardic Acid 15:2 concentration,[3]; [4],57.80 ppm
same,Anacardic Acid 15:3 Composition (%),[3]; [4],32.64%
same,Anacardic Acid 15:3 concentration,[3]; [4],134.06 ppm
same,Cardanol 15:1 concentration,[3]; [4],23.41 ppm
same,Cardanol 15:2 Composition (%),[3]; [4],2.78%
same,Cardanol 15:2 concentration,[3]; [4],11.43 ppm
same,Cardanol 15:3 Composition (%),[3]; [4],5.44%
same,Cardanol 15:3 concentration,[3]; [4],22.36 ppm
same,Anacardic Acid 15:1 Composition (%),[3]; [5],32.92%
same,Anacardic Acid 15:1 concentration,[3]; [5],121.26 ppm
same,Anacardic Acid 15:2 Composition (%),[3]; [5],11.63%
same,Anacardic Acid 15:2 concentration,[3]; [5],42.84 ppm
same,Anacardic Acid 15:3 Composition (%),[3]; [5],26.37%
same,Anacardic Acid 15:3 concentration,[3]; [5],97.14 ppm
same,Cardanol 15:1 Composition (%),[3]; [5],12.91%
same,Cardanol 15:1 concentration,[3]; [5],47.56 ppm
same,Cardanol 15:2 Composition (%),[3]; [5],4.67%
same,Cardanol 15:2 concentration,[3]; [5],17.19 ppm
same,Cardanol 15:3 Composition (%),[3]; [5],11.49%
same,Cardanol 15:3 concentration,[3]; [5],42.34 ppm
same,Anacardic Acid 15:1 Composition (%),[3]; [6],39.73%
same,Anacardic Acid 15:1 concentration,[3]; [6],151.81 ppm
same,Anacardic Acid 15:2 Composition (%),[3]; [6],14.05%
same,Anacardic Acid 15:2 concentration,[3]; [6],53.68 ppm
same,Anacardic Acid 15:3 Composition (%),[3]; [6],32.47%
same,Anacardic Acid 15:3 concentration,[3]; [6],124.09 ppm
same,Cardanol 15:1 concentration,[3]; [6],21.54 ppm
same,Cardanol 15:2 Composition (%),[3]; [6],2.79%
same,Cardanol 15:2 concentration,[3]; [6],10.67 ppm
same,Cardanol 15:3 Composition (%),[3]; [6],5.32%
same,Cardanol 15:3 concentration,[3]; [6],20.34 ppm
same,Anacardic Acid 15:1 Composition (%),[3]; [7],38.12%
same,Anacardic Acid 15:1 concentration,[3]; [7],136.67 ppm
same,Anacardic Acid 15:2 Composition (%),[3]; [7],14.58%
same,Anacardic Acid 15:2 concentration,[3]; [7],52.15 ppm
same,Anacardic Acid 15:3 Composition (%),[3]; [7],30.40%
same,Anacardic Acid 15:3 concentration,[3]; [7],108.99 ppm
same,Cardanol 15:1 Composition (%),[3]; [7],7.19%
same,Cardanol 15:1 concentration,[3]; [7],25.79 ppm
same,Cardanol 15:2 Composition (%),[3]; [7],3.19%
same,Cardanol 15:2 concentration,[3]; [7],11.43 ppm
same,Cardanol 15:3 Composition (%),[3]; [7],6.55%
same,Cardanol 15:3 concentration,[3]; [7],23.49 ppm
same,inhibition of the decarboxylation,[3]; 2% by weight,moderate inhibition
same,inhibition of the decarboxylation,[3]; 10% by weight,significant inhibition

# — patent publication US20130216666A1, “CASHEW NUT SHELL LIQUID WITH IMPROVED STABILITY” (IDEMITSU KOSAN CO., LTD., priority 2010, published 2013)
